The values that follow come from patent US9670217B2, “Process for preparing chlorins and their pharmaceutical uses” (UNIVERSIDADE DE COIMBRA, priority 2008, dated 2017).

Where “and” joins values, the source holds several entries; their conditions need not be identical. Equal entries are not always repeated.

Data set [1] is described as follows: Absorption spectra (λmax, molar absorption coefficient). Format: physicochemical. As to conditions: for λmax / εmax: ethanol solutions.
Data set [2] in a line: Singlet oxygen quantum yield and lifetime (1270 nm phosphorescence). Format: physicochemical. Particulars: air-saturated ethanol; for ΦΔ (singlet oxygen quantum yield): phenalenone as reference. Here is the method: Absorption spectra were recorded on a Shimadzu UV-2100 spectrophotometer or with a Carry 50 Biospectrophotometer (Varian, Mulgrave, USA). Fluorescence spectra were measured with a Spex Fluorolog 3 spectrophotometer, with correction for the wavelength dependence system (RCA C31034 photomultiplier), or with a PerkinElmer LS 50 spectrofluorimeter. Transient absorption spectra were measured with an Applied Photophysics LKS 60 nanosecond laser flash photolysis kinetic spectrometer, using the third harmonic of a Spectra-Physics Quanta Ray GCR 130-01 Nd/YAG laser for excitation, a Hamamatsu 1P28 photomultiplier and a Hewlett-Packard Infinium oscilloscope (1 GS/s). Flash photolysis measurements were made in the presence of air and in argon saturated solutions. Photoacoustic calorimetry employed the same Nd/YAG laser, a home-made front-face photoacoustic cell with a 2.25 MHz Panametrics transducer (model 5676) and a Tektronix DSA 601 transient recorder. Room-temperature singlet-oxygen phosphorescence was measured at 1270 nm with a Hamamatsu R5509-42 photomultiplier, cooled to 193 K in a liquid nitrogen chamber (Products for Research model PC176TSCE005), following laser excitation of aerated solutions at 355 nm, using an adapted Applied Photophysics spectrometer. Singlet oxygen emission at 1270 nm was also monitored with a liquid nitrogen-cooled germanium detector (North Coast) coupled to a Tectronix Digitizing scope (TDS 520B), following sample excitation with 5 ns laser pulses of the third harmonic (355 nm) generated by a Q-switched Nd:YAG laser (Continuum Surelite II).
Singlet oxygen quantum yields in ethanol were obtained using a procedure described by some of us, using phenalenone as reference. The literature value for the singlet oxygen quantum yield obtained with phenalenone in ethanol is ΦΔ=0.95 [38].
All the singlet oxygen emissions measured in aerated ethanol solutions are very well described by mono-exponential decays, with typical singlet oxygen lifetimes (τΔ). The ΦΔ values of Table 1 were obtained by the procedures described above and are representative of these photosensitisers.
An air-saturated solution of Luzitin-Cl2Hep in ethanol with an absorbance ca. 0.2 at 355 nm was excited in a 1 cm quartz cuvette by a pulsed Nd:YAG laser, and the singlet oxygen emission was followed at 1270 nm, using the equipment and methods previously described. The intensity of the singlet oxygen phosphorescence was studied as a function of the laser intensity. A similar study was made with phenalenone in ethanol, at a concentration matching the absorbance of Luzitin-Cl2Hep at 355 nm. […] Various laser energies were employed and from the slopes of the energy dependence of singlet oxygen emission and the value of ΦΔ=0.95 for phenalenone in this ethanol, we obtained ΦΔ=0.78 for Luzitin-Cl2Hep.

Data set [3] in a line: Photobleaching under 748 nm diode laser irradiation. The data set is classed as physicochemical. Particulars: for t1/2 (photobleaching half-life): 100 mW laser irradiation at 748 nm. The source says: The irradiation of bacteriochlorins in the photobleaching experiments employed the 748 nm Lynx diode laser. For animal studies we employed a costumer-made Hamamatsu diode laser, type LA0873. S/N M070301, which delivered 140 mW at 748 nm. This diode laser was controlled by a ThorLabs 500 mA ACC/APC Laser Diode Controller and in-house electronics. The laser energies of this and the other higher-energy lasers employed in this work were regularly checked with an Ophir model AN/2E laser power meter.
Photobleaching experiments were conducted in PBS. PBS:methanol (50:50) and methanol solutions. The solutions were irradiated in a cuvette with an optical path of 1 cm and the Lynx diode laser. The initial absorption of the solutions was ca. 0.8. The mechanism of photobleaching was assessed with the irradiation of the sensitizer using the Hamamatsu diode laser at 80 mW. The sensitizer was irradiated in PBS and in the presence of ascorbic acid or azide.
The chemical stability of the compounds was studied exposing them to light, air, and pH changes. The most significant degradation occurs for aerated solutions irradiated by light of the appropriate wavelength. In such circumstances the photobleaching of the compounds follows a first-order rate and is proportional to the energy of the incident laser light. In general, it was also observed that the photobleaching rate increases with the amount of water present in the solution. Bennett reported the photoconversion of Foscan® (m-THPC) and of the analogous bacteriochlorin (m-THPB) in PBS:methanol (50:50). Scherz reported the photoconversion of Tookad® in acetone and Triton-X:PBS [3]. For the purpose of comparing the photostability of Luzitins with that of Foscan® and Tookad®, we present in Table 2 the half-lives (t1/2) of representative drugs described herein, together with those of Foscan and Tookad® normalized for a laser power of 100 mW.
Luzitin-FMet was dissolved in PBS:methanol (2:3), transferred to a 1 cm quartz cell and its absorption spectrum was registered, FIG. 6. The quartz cell was then placed in the beam of the 748 nm Lynx diode laser, previously unfocused to have a beam diameter coincident with the window of the quartz cell. The laser power measured under these conditions was 28.8 mW. Every 5 minutes the irradiation was interrupted and a new absorption spectrum was registered. This procedure was followed for 65 minutes. The photobleaching follows the kinetics of a first-order reaction in the time window of the experiment. […] Whereas the bacteriochlorin peak at 743 nm is reduced from an absorbance of 1.128 to 0.337, the absorption of the chlorin only increases from 0.114 to 0.151. Taking into consideration the molar absorption coefficients of the compounds at these wavelengths, it is clear that whereas 70% of the bacteriochlorin is destroyed during the irradiation, only a few percent of chlorin are formed.
The half-lives of other bacteriochlorins normalized 100 mW laser irradiation at 748 nm are presented in […], together with the literature data for the photodegradation of Foscan® and Tookad® normalized for the same light intensity. It was also observed that the half-live to Luzitin-Cl is increased by a factor of 30 when the PBS solution of the photosensitizer is saturated with Argon, which reduces the oxygen concentration in the solution.

The nature of data set [4]: n-octanol:water partition coefficient (shake-flask). Format: physicochemical. The method, then: The n-octanol:water partition coefficients (CP) were measured using a minor modification of the shake-flask method described by some of us in the literature. The modification concerned the excitation of the absorption band ca 500 nm and the collection of the fluorescence in the red/IR region.

Data set [5] relates to PC-3 (human prostate carcinoma). The experiment in a line: Cell photosensitization, 748 nm diode laser, resazurin. Format: cell-based. Particulars: for concentration of sensitizer required to kill 90% of cells (LD90): 6 J/cm^2 diode laser irradiation at 28.5 mW. In general terms: Resazurin is reduced to fluorescent resorufin, in cell work by metabolically active cells.
The subject of data set [6] is HT-29 (human adenocarcinoma). The description is as above. Format: cell-based. Particulars: for concentration of sensitizer required to kill 90% of cells (LD90): 6 J/cm^2 diode laser irradiation at 28.5 mW.
Data set [7] deals with CT26 (murine colon carcinoma). Described as above. As to conditions: for concentration of sensitizer required to kill 90% of cells (LD90): 6 J/cm^2 diode laser irradiation at 28.5 mW. Format: cell-based, mouse.
The mark [8] stands for this setting: corrected for the chlorin content.

The molecule `O=S(=O)(O)c1ccc(Cl)c(-c2c3nc(c(-c4cc(S(=O)(=O)O)ccc4Cl)c4ccc([nH]4)c(-c4cc(S(=O)(=O)O)ccc4Cl)c4nc(c(-c5cc(S(=O)(=O)O)ccc5Cl)c5ccc2[nH]5)CC4)CC3)c1` [Luzitin-Cl, 5,10,15,20-tetrakis(2-chloro-5-sulfonylphenyl)bacteriochlorin] showed a λmax in data set [1] of 746.5 nm. Also, in data set [1] (setting [8]), the εmax is reported as 23,000^d) M^−1 cm^−1. Further, in data set [2], the “τΔ (singlet oxygen lifetime)” value amounted to 13.6 μsec and the “ΦΔ (singlet oxygen quantum yield)” value turned out to be 0.43. The “t1/2 (photobleaching half-life)” value in data set [3] (PBS) was 174 s. Moreover, in data set [4], the “log KOW (n-octanol:water partition coefficient)” value (from here on “log KOW”) is listed as −1.70.
Molecule `CNS(=O)(=O)c1ccc(F)c(-c2c3nc(c(-c4cc(S(=O)(=O)NC)ccc4F)c4ccc([nH]4)c(-c4cc(S(=O)(=O)NC)ccc4F)c4nc(c(-c5cc(S(=O)(=O)NC)ccc5F)c5ccc2[nH]5)CC4)CC3)c1` [Luzitin-FMet, 5,10,15,20-tetrakis(2-fluoro-5-N-methylsulfamoylphenyl)bacteriochlorin] registered a λmax in data set [1] of 742.5 nm. For the same molecule, in data set [1] (setting [8]), the εmax is 62,000^d) M^−1 cm^−1. Also, the “τΔ (singlet oxygen lifetime)” value in data set [2] is on record as 14.1 μsec. Further, the “ΦΔ (singlet oxygen quantum yield)” value in data set [2] is listed as 0.71. Besides, the “bacteriochlorin destroyed during irradiation” value in data set [3] (PBS:methanol (2:3), 748 nm, 28.8 mW, 65 minutes) is given as 70%. Also, the results for the “t1/2 (photobleaching half-life)” value in data set [3] (PBS:methanol) and in data set [3] (methanol) were 647 s and 3,553 sec, respectively. In addition, in data set [4], the “log KOW” value amounted to 2.3. Moreover, the “concentration of sensitizer required to kill 90% of cells (LD90)” value (shortened to “concentration … to kill 90% of cells (LD90)”) was 0.5 µM in data set [5]; 0.5 µM and 1 µM in data set [6]; 1.0 µM in data set [7]. Besides, in data set [6] (1 μM, laser light dose 6 J/cm^2, incubation 18 hours), the cell kill came to 100%.
On to `O=S(=O)(O)c1ccc(Cl)c(-c2c3nc(c(-c4c(Cl)ccc(S(=O)(=O)O)c4Cl)c4ccc([nH]4)c(-c4c(Cl)ccc(S(=O)(=O)O)c4Cl)c4nc(c(-c5c(Cl)ccc(S(=O)(=O)O)c5Cl)c5ccc2[nH]5)CC4)CC3)c1Cl` [Luzitin-Cl2, 5,10,15,20-tetrakis(2,6-dichloro-3-sulfonylphenyl)bacteriochlorin], for which the λmax in data set [1] turned out to be 745.0 nm. Further, the εmax in data set [1] (setting [8]) is 27,000^d) M^−1 cm^−1. In addition, the “τΔ (singlet oxygen lifetime)” value in data set [2] was determined as 15.4 μsec. Also, in data set [2], the “ΦΔ (singlet oxygen quantum yield)” value is recorded as 0.85. The “t1/2 (photobleaching half-life)” value in data set [3] (PBS) worked out at 358 s. Further, the “log KOW” value in data set [4] is recorded as −1.75. For the same molecule, the cell kill in data set [5] (20 μM, laser light dose 6 J/cm^2, incubation 24 hours) is 100%; in data set [7] (10 μM, laser light dose 6 J/cm^2, incubation 18 hours) it was 100%. In addition, the “concentration … to kill 90% of cells (LD90)” value in data set [5] was 20 µM; in data set [6], 50 µM.
`CCNS(=O)(=O)c1ccc(Cl)c(-c2c3nc(c(-c4c(Cl)ccc(S(=O)(=O)NCC)c4Cl)c4ccc([nH]4)c(-c4c(Cl)ccc(S(=O)(=O)NCC)c4Cl)c4nc(c(-c5c(Cl)ccc(S(=O)(=O)NCC)c5Cl)c5ccc2[nH]5)CC4)CC3)c1Cl` [Luzitin-Cl2Et, 5,10,15,20-tetrakis(2,6-dichloro-3-N-ethylsulfamoylphenyl)bacteriochlorin]: in data set [1], the “enhancement of ε at 750 nm band, more polar atropisomer fraction (βα3+α4)” value is 50%; the εmax is reported as 96,000 M^−1 cm^−1; the λmax is 745.5 nm. The “εmax of the more polar atropisomer fraction (βα3+α4)” value in data set [1] (at 748 nm (750 nm band), estimated) is 150,000 M^−1 cm^−1. In data set [2], the “τΔ (singlet oxygen lifetime)” value came out at 13.7 μsec and the “ΦΔ (singlet oxygen quantum yield)” value amounted to 0.66. The “t1/2 (photobleaching half-life)” value in data set [3] (PBS:methanol) is 4,013 sec. In addition, in data set [4], the “log KOW” value is 1.8. The “concentration … to kill 90% of cells (LD90)” value in data set [5] was found to be 5 µM. The “concentration … to kill 90% of cells (LD90)” value in data set [6] stood at 10 µM. Also, the “concentration … to kill 90% of cells (LD90)” value in data set [7] came out at 5 µM.
